Laboratory results reported in patent publication US20100123097A1, “Method for Making Carbonates and Esters” (SABIC […] IP BV, priority 2008, published 2010).

Conditions: after >20 h storage time in the solvents of the table
Experimental: Suitable reaction temperatures will typically be high enough to keep the solution or melt in the liquid form and not high enough to cause loss of the species 1, 2, 3, or 5 in FIGS. 1 and 2. The reaction temperature is less than 180° C., 160° C., 140° C. […] Higher reaction temperatures may be appropriate when more sterically hindered alcohols are used as reactants if longer reaction times are not acceptable.

COC(=O)c1ccccc1OC(=O)Oc1ccccc1C(=O)OC [BMSC, bismethyl salicyl carbonate]
Stability in these solvents (MS formation): no detectable MS formation
